In data set [1] the test system is RAW264.7. Briefly: Antiinflammatory activity in mouse RAW264.7 cells assessed as inhibition of LPS-induced NO production at 1 uM. Format: functional.
For data set [2], the system named is RAW264.7. Briefly: Antiinflammatory activity in mouse RAW264.7 cells assessed as inhibition of LPS-induced NO production at 10 uM. Format: functional.
Data set [3] in a line: Cytotoxicity against mouse RAW264.7 cells assessed as cell proliferation at 1 uM. Format: cell-based. To be noted: read-out: Activity.
Data set [4] is described as follows: Cytotoxicity against mouse RAW264.7 cells assessed as cell proliferation at 10 uM. The class given is cell-based. To be noted: read-out: Activity.
Data set [5] deals with RAW264.7. Kind of data set: Antiinflammatory activity in mouse RAW264.7 cells assessed as inhibition of LPS-induced NO production. Format: functional, cell-based.

Six molecules from ChEMBL document CHEMBL3352224, “Synthesis and biological evaluation of piperlongumine derivatives as potent anti-inflammatory agents” (Bioorg Med Chem Lett, 2014) can be followed below.

The inhibition is the relative decrease from the control value, in per cent. By IC50 is commonly meant the midpoint of a concentration-inhibition curve. Turning to `COc1cc(/C=C/C(=O)N2CCCCC2=O)cc(OC)c1OC`, the inhibition at 1 µM in data set [1] was 1%. Also, the inhibition at 10 µM in data set [2] was 46%. For the same molecule, in data set [3], the viability at 1 µM came to 107%. Moreover, the viability at 10 µM in data set [4] is 101%. Besides, the IC50 in data set [5] stood at 14 µM.

In the case of `COc1cc(/C=C/C(=O)N2CCCC2=O)cc(OC)c1OC`, the inhibition at 1 µM in data set [1] was found to be 1%. In addition, in data set [2], the inhibition at 10 µM came out at 28%. Besides, in data set [3], the viability at 1 µM stood at 105%. The viability at 10 µM in data set [4] is 102%. In addition, the IC50 in data set [5] was 80 µM.

For the molecule `CCC(=O)NC(=O)/C=C/c1cc(OC)c(OC)c(OC)c1`, the inhibition at 1 µM in data set [1] was -1%. For the same molecule, the inhibition at 10 µM in data set [2] turned out to be 16%. Also, the viability at 1 µM in data set [3] is 97%. Besides, the viability at 10 µM in data set [4] came to 103%. The IC50 in data set [5] stood at 64 µM.

Turning to `COc1cc(/C=C/C(=O)N2CCC2=O)cc(OC)c1OC`, the inhibition at 1 µM in data set [1] was 1%. Also, the inhibition at 10 µM in data set [2] worked out at 22%. Also, in data set [3], the viability at 1 µM came to 97%. Moreover, the viability at 10 µM in data set [4] amounted to 92%. The half-inhibitory concentration (IC50) in data set [5] is 64 µM.

Consider `COc1cc(/C=C/C(=O)NC(C)=O)cc(OC)c1OC`, for which the inhibition at 1 µM in data set [1] is -1%. Moreover, the inhibition at 10 µM in data set [2] was 16%. For the same molecule, in data set [3], the viability at 1 µM worked out at 104%. Also, the viability at 10 µM in data set [4] was found to be 104%. Also, in data set [5], the half-maximal inhibitory concentration (IC50) is 341 µM.

Regarding `COc1cc(/C=C/C(=O)N2CCC=CC2=O)cc(OC)c1OC` [PIPLARTINE], the inhibition at 1 µM in data set [1] came out at 11%. Also, the inhibition at 10 µM in data set [2] came to 91%. Besides, in data set [3], the viability at 1 µM was found to be 115%. In data set [4], the viability at 10 µM turned out to be 77%. For the same molecule, the half-inhibitory concentration (IC50) in data set [5] is 3 µM.
